Experiments:
RNase R = molecular target: T1, RNase R (Escherichia coli, UniProt P21499); type: biochemical; details: 10 mM compound, 10 nM enzyme, 10 nM poly(A), 1 mM MgCl2, 100 mM KCl, pH 8, 37 °C, DMSO
T1 construct: gene rnr; full-length recombinant, N-terminal His tag (pET15b derivative), expressed in E. coli BL21(DE3), IMAC purified

RNase II = molecular target: T2, RNase II (Escherichia coli, UniProt P30850); type: biochemical; details: 10 mM compound, 10 nM enzyme, 10 nM poly(A), 1 mM MgCl2, 100 mM KCl, pH 8, 37 °C, DMSO
T2 construct: gene rnb; full-length recombinant, N-terminal His tag (pET15b derivative), expressed in E. coli BL21(DE3), IMAC purified
T2 sequence (P30850 whole entry): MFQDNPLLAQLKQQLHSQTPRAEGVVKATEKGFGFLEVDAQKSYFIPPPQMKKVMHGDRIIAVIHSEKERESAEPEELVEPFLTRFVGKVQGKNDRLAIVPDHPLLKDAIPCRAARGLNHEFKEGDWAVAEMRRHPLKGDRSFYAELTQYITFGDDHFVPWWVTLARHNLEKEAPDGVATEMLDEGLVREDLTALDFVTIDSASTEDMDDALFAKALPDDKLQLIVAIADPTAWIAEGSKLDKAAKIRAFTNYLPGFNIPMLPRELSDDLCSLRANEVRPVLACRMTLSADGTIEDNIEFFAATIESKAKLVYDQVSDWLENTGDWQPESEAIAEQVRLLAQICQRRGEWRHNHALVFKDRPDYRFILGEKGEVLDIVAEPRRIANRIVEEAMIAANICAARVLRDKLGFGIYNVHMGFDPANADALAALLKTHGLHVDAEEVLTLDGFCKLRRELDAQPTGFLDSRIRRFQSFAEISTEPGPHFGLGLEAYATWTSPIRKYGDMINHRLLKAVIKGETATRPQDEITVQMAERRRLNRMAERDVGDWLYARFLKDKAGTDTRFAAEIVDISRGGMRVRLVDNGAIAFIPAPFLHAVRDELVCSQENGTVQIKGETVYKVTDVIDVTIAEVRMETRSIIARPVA

T1 sequence (P21499 2-813): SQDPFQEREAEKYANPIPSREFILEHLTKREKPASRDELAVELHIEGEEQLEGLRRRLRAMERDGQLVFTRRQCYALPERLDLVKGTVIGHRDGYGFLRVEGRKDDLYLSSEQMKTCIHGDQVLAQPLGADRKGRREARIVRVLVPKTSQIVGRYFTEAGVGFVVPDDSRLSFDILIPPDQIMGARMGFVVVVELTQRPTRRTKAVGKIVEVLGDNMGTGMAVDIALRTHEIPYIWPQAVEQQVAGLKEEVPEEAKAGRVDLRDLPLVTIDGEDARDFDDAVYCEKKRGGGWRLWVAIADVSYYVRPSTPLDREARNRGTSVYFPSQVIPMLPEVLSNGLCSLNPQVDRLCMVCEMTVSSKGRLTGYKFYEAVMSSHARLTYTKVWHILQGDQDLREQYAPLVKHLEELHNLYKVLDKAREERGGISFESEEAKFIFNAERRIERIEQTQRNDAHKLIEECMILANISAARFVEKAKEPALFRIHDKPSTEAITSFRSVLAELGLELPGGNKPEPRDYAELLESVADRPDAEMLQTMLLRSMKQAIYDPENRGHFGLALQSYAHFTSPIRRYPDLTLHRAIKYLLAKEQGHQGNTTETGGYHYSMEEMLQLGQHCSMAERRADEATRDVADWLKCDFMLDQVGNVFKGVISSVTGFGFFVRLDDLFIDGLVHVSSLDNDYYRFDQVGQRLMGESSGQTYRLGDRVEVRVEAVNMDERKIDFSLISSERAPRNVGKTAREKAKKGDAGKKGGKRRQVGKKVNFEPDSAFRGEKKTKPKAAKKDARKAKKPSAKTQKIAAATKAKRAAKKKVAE

Row | SMILES | gel exoribonuclease assay, 5'-32P 35-nt poly(A) (RNase R) | gel exoribonuclease assay, 5'-32P 35-nt poly(A) (RNase II)
1 | Cc1nc(S)nc(O)c1Oc1cccc(C(F)(F)F)c1 [SPB04215, 2-mercapto-6-methyl-5-[3-(trifluoromethyl)phenoxy]pyrimidin-4-ol] | SPB04215 and SPB04462 compounds were also effective in inhibiting RNase R activity | with RNase II being also affected, but to a lesser extent
2 | CC(=O)Nc1nc(C)c(Oc2cccc(C(F)(F)F)c2)c(O)n1 [SPB04462, N1-{4-hydroxy-6-methyl-5-[3-(trifluoromethyl)phenoxy]pyrimidin-2-yl}acetamide] | SPB04215 and SPB04462 compounds were also effective in inhibiting RNase R activity | with RNase II being also affected, but to a lesser extent

Reference: article PMC11311990, “Identification of Ribonuclease Inhibitors for the Control of Pathogenic Bacteria” (International Journal of Molecular Sciences, 2024)
